Test results reported in patent US20170224772A1, “COMPOSITION AND KIT FOR PREVENTION OR TREATMENT OF ARTHRITIS, AND METHOD USING THE SAME” (Samsung Electronics Co., Ltd., priority 2014, published 2017).
Marks after values point to notes of the source that are not given here.

What was measured:
Type in all cases: in vivo, mouse (DBA/1)
cytokine [1] = experiment: Cytokine concentration in splenocyte culture medium, cultured in the presence of ConA; conditions: ConA 2.5 μg/ml, 48 hours
Procedure: (§1) Mice were divided into five groups, and saline solution, hASCs, and CTLA4Ig-hASC were intravenously injected to mouse tails on Day 63, Day 70, Day 77, and Day 84 after immunization as shown in Table 1 below.
(§2) To verify the variation of cytokine expression according to transplantation of hASC or CTLA4Ig-hASC, the serum, knee extract, splenocytes, and lymph node cells obtained in Example 1-2 were prepared.
(§3) Splenocytes of each group were separated. 2.5×10^5/well of splenocytes cultured in 96-well plate (Nunc) in a final volume of 200 μl including or not including 100 μg/ml of Type II collagen (Sigma Aldrich), 2.5 μg/ml of concanavalin A (ConA) (Sigma Aldrich), and 2.5 μg/ml of lipopolysaccharide (LPS) (Sigma Aldrich). The cells were incubated in humidified air at 37° C. for 48 hours. Then, the supernatant of the splenocyte culture medium was obtained and stored at −70° C. By the same method, lymph node cells were cultured in a culture medium including ConA, and the supernatant of lymph node cell culture solution was obtained.
(§4) The cytokine concentration in serum, knee extract, and the obtained supernatant of the culture solutions of splenocytes and lymph node cells was measured by using a multiplex cytokine/chemokine kit (Milliplex MAP mouse cytokine/chemokine kit, Millipore) by following the protocol provided by the manufacturer. As cytokines, tumor necrosis factor (TNF)-αinterferon (IFN)-α, interleukin (IL)-1α, IL-1β, IL-2, IL-4, IL-6, IL-10, IL-12p70, IL-15, IL-17, keratinocyte-derived chemokine (KC), monocyte chemotactic protein (MCP)-1, macrophage inflammatory protein (MIP)-2, and regulated-upon-activation normal T-cell expressed and secreted (RANTES) were measured.
(§5) The cytokine concentration (pg/ml) in the splenocyte culture medium that was cultured in the presence of Type II collagen, ConA, an LPS is shown in Tables 4 to 6, respectively. The cytokine concentration (pg/ml) in the lymph node cell culture solution that was cultured in the presence of ConA is shown in Table 7.
(§6) The data obtained from each group was compared by performing a Kruskal Wallis test (†: P<0.05) or a (Mann-Whitney U test) (*: significant difference in comparison with the negative control group (p<0.05)).

[2] = tested on: Mice in which rheumatoid arthritis was induced; experiment: ELISA of anti-mouse type II collagen antibody, C-telopeptide I and C-telopeptide II in serum; conditions: comparison among negative control and treatment groups
Procedure: Chicken type II collagen (Sigma-Aldrich) was mixed with 0.05 M acetic acid at 4° C. to the concentration of 2 mg/ml. The resulting mixture and Freund's complete adjuvant (CFA) (Sigma-Aldrich) were mixed at an equal amount ratio, and then the resulting mixture was homogenized at 30000 rpm for three minutes by using a homogenizer (Polytron PT3100D) to prepare an antigen material for administration. For a first immunization, the antigen material for administration was intradermally injected to a mouse tail (DBA/1 mouse, six weeks old) (Day 1). Three weeks later, the CFA was replaced by Freund's incomplete adjuvant (IFA) (Sigma-Aldrich), and boosting was performed by the same method. […]
In the serum obtained in Example 1-2, anti-mouse type II collagen antibody, C-terminal telopeptide of Type I collagen (C-telopeptide I) that was a Type I collagen discharged during osteoclastic bone resorption, and C-terminal telopeptide of Type II collagen (C-telopeptide II) that was a chondrolysis product were detected by ELISA.
Specifically, anti-mouse type II collagen antibody, C-telopeptide I, and C-telopeptide II in the serum were measured by using an anti-mouse type II antibody collagen ELISA kit (Astarte Biologics), RatLap™ EIA kit (Immunodiagnostic Systems Ltd.), and a type II collagen ELISA kit (CUSABIO), respectively. […]

[3] = tested on: Mice in which rheumatoid arthritis was induced; experiment: Micro-CT verification of morphologic defects in paw joints; conditions: score 0-4
Source text: as §1
(§7) Knee cartilage tissues were stained to investigate the degree of cartilage injury and bone injury by rheumatoid arthritis, and micro-computed tomography images were obtained to verify morphologic defects in paw joints.
To verify morphological defects in paw joints, the mice paw obtained in Example 1-2 were fixed by using 4%(v/v) formalin (Sigma-Aldrich), and images of the mouse paws were obtained by using Inveon Preclinical CT (Siemens Healthcare) that is a micro-CT scanner at 40 μm of thickness, 0.6 second of exposure time, 70 keV of […] energy, and 400 μA of current. The images were reconstructed into three-dimensional images by using IRW software (Siemens Healthcare).
The data were compared among the groups by performing an ANOVA and then Tukey's multiple comparison tests. A significant difference in comparison with the negative control group was marked as “*” (p<0.05).

cytokine [4] = experiment: Cytokine concentration in splenocyte culture medium, cultured in the presence of Type II collagen; conditions: Type II collagen 100 μg/ml, 48 hours
Procedure: as §1, §2, §3, §4
as §5, with “7. […]” for “7.”

[5] = tested on: Mice in which rheumatoid arthritis was induced; experiment: Assessment of arthritis severity (score of edema and flare at fore and hind paws); conditions: 0-4 per leg, maximum 16; after three times of administration; in comparison with negative control group
Procedure: Chicken type II collagen (Sigma-Aldrich) was mixed with 0.05 M acetic acid at 4° C. to the concentration of 2 mg/ml. The resulting mixture and Freund's complete adjuvant (CFA) (Sigma-Aldrich) were mixed at an equal amount ratio, and then the resulting mixture was homogenized at 30000 rpm for three minutes by using a homogenizer (Polytron PT3100D) to prepare an antigen material for administration. For a first immunization, the antigen material for administration was intradermally injected to a mouse tail (DBA/1 mouse, six weeks old) (Day 1). Three weeks later, the CFA was replaced by Freund's incomplete adjuvant (IFA) (Sigma-Aldrich), and boosting was performed by the same method.
as §1
In the mice of Example 1-2, from Day 62 after the immunization, the severity of arthritis at the fore paw and the hind paw was assessed three times per week in a score from 0 point (No arthritis) to 4 point (Severe arthritis) according to the degree of edema and flare. The assessment was performed at each leg with the maximum possible score of 16. The clinical score was measured at each mouse by Day 90 after the immunization. […]

cytokine [6] = experiment: Cytokine concentration in splenocyte culture medium, cultured in the presence of LPS; conditions: LPS 2.5 μg/ml, 48 hours
Procedure: as §1, §3, §4, §6

cytokine [7] = experiment: Multiplex measurement of cytokine concentration in serum
Procedure: as §1, §2, §4, §5, §6

[8] = tested on: Mice in which rheumatoid arthritis was induced; experiment: Histopathological assessment of knee cartilage (H&E, Safranin O); conditions: H&E and Safranin O, Week 13 after first immunization
Source text: as §1, §7
In Week 13 after the first immunization, knee cartilage tissues were obtained from the animals of Example 1-2. The obtained knee cartilage tissues were fixed by using 10% (v/v) neutral buffered formalin (Sigma-Aldrich), and the resulting solution was stirred by using a rapid decalcifier (Thermo Scientific) for 24 hours to decalcify. When an osseous tissue was easily cut by a razor, it was assumed that the tissue was completely decalcified. The decalcified osseous tissue was dehydrate and embedded in paraffin. To assess histopathological injury, the paraffin-embedded tissue was cut into 4 μm-thick slices, and the paraffin was removed from the slices by using xylene. Then, the slices were rehydrated by using a graded alcohol, and stained by using hematoxylin and eosin (H&E) (DAKO) and Safranin O (IHC World). […]

cytokine [9] = experiment: Cytokine concentration in lymph node cell culture solution, cultured in the presence of ConA
Procedure: as §1, §2
Splenocytes of each group were separated. 2.5×10^5/well of splenocytes cultured in 96-well plate (Nunc) in a final volume of 200 μl including or not including 100 μg/ml of Type II collagen (Sigma Aldrich), 2.5 μg/ml of concanavalin A (ConA) (Sigma Aldrich), and 2.5 μg/ml of lipopolysaccharide (LPS) (Sigma Aldrich). […]
as §4, with “measured. […]” for “measured.”

cytokine [10] = experiment: Multiplex measurement of cytokine concentration in knee extract
Procedure: as §1, §2, §4, §5, §6

## CN(Cc1cnc2nc(N)nc(N)c2n1)c1ccc(C(=O)N[C@@H](CCC(=O)O)C(=O)O)cc1 [MTX, methotrexate]
Cytokine [1]
  IL-1α concentration: 21.02 ± 3.77 pg/mL
  IL-6 concentration: 279.78 ± 71.12 pg/mL
  IL-10 concentration: 80.76 ± 23.19 pg/mL
  IL-17 concentration: 1345.14 ± 590.38 pg/mL
  KC concentration: 10.78 ± 1.86 pg/mL
  MCP-1 concentration: 549.99 ± 220.33 pg/mL
[2]
  concentration of C-telopeptide I in serum: not significantly different
[3]
  mice showing a severe morphological defect in the paw joints: four mice out of the seven mice
Cytokine [4]
  IL-10 concentration: 3.75 ± 0.89 pg/mL
  IL-17 concentration: 4.73 ± 2.01 pg/mL
  MCP-1 concentration: 591.43 ± 222.2 pg/mL
[5]
  arthritis severity score: a pattern that was similar to that of the negative control group
Cytokine [6]
  IL-1α concentration: 112.01 ± 27.82 pg/mL
  IL-4 concentration: 0.37 ± 0.24 pg/mL
  IL-6 concentration: 4676.79 ± 1097.10 pg/mL
  KC concentration: 199.78 ± 50.25 pg/mL
  MCP-1 concentration: 250.79 ± 87.01 pg/mL
  MIP-2 concentration: 2022.27 ± 409.37 pg/mL
  RANTES concentration: 128.44 ± 24.46 pg/mL
  TNF-α concentration: 90.65 ± 20.41 pg/mL
Cytokine [7]
  IL-6 concentration: 161.10 ± 59.69 pg/mL
  MIP-2 concentration: 17.36 ± 8.79* pg/ml
  TNF-α concentration: 5.22 ± 1.37 pg/mL
[8]
  destruction of the joint cartilage: severely damaged
Cytokine [9]
  IL-10 concentration: 23.11 ± 4.08 pg/mL
Cytokine [10]
  IL-1β concentration: 4.54 ± 2.88 pg/mL
  IL-6 concentration: 19.37 ± 11.87 pg/mL
  KC concentration: 305.82 ± 147.86 pg/mL
  MIP-2 concentration: 50.36 ± 19.78 pg/mL
  RANTES concentration: 0.20 ± 0.07* pg/ml
